# “Also recorded” adds a separate entry of the source. Where a name gives a salt, the structure may show the parent alone.
# What was measured:
# [1] = tested on: cerebellar granular cells; test: L-dopa toxicity in primary cultures of cerebellar granular cells, viability by 14C-aminoisobutyric acid uptake; format: cell-based, Sprague Dawley rats; settings: for % of control* (viability, radioactivity): mean of triplicates +/- S.D.
# Procedure: Primary cultures of cerebellar granular cells were prepared from 8-day-old Sprague Dawley rats (Charles River, Portage, Mich.) as described previously (1). […] Glial cell proliferation was prevented by adding cytosine-arabinofuranoside-monophosphate (Sigma, St. […] Experiments were started after cells were 8 days in vitro (8 DIV). Cells were washed with two ml of serum free growth medium. Concentrations of 100X stock solutions of PPX and the (+) enantiomer in serum free growth medium were made. These were delivered to cells by adding 20 ul to cells in growth medium per well. […] Cells were incubated under the above conditions for 24 hrs. […] Cells were solubilized, following a wash, with 0.5% Triton X-100. The solubilized cells were then counted for radioactivity on a scintillation counter. Data was expressed as the mean of triplicates ±S.D. for each point.
# [2] = tested on: adrenergic receptors
# [3] = tested on: serotonergic receptors
# [4] = tested on: dopaminergic receptors; test: Battery of binding assays, dopaminergic receptors
# [5] = tested on: rat model of cerebral infarction; settings: administered before the event; cited from earlier work
# [6] = tested on: nigrostriatal dopamine neurons
# Procedure: We examined histologically retrograde degeneration of the dopaminergic nigrostriatal (NS) tract over 28 days in gerbils subjected to a 10-minute period of forebrain ischemia via bilateral carotid occlusion.
# The administration of pramipexole was via an initial dose of 1 mg/kg PO 60 minutes after ischemia and again at the end of day 1 followed by twice daily dosing for the next 26 days.
# [7] = tested on: gerbil model of global cerebral ischemia; settings: in vivo; cited from earlier work
smiles,measurement,setting,value
"N[C@@H](Cc1ccc(O)c(O)c1)C(=O)O [L-dopa, reference compound]",Toxicity of L-dopa,"[1]; 100 uM L-dopa, 24 hrs",64.8%
"CCCNC1CCc2nc(N)sc2C1.Cl.Cl (single isomer, unassigned; (+)) [(+) enantiomer, (+)-enantiomer of 2-amino-6-n-propylamino-4,5,6,7-tetrahydrobenzothiazole dihydrochloride]",viability measurements versus control cells (in words),"[1]; 10 uM compound, L-dopa treated cells",equal to control cells not exposed to L-dopa
same,neuroprotection against L-dopa toxicity (in words),"[1]; cerebellar granule cells in culture, dihydrochloride",blocked L-dopa toxicity; also recorded: equally as potent and effective compared to pramipexole
same,binding activity (in words),[2],inactive
same,binding activity (in words),[3],inactive
same,binding activity (in words),[4],less active
CCN(CC)C(=O)N[C@H]1C=C2c3cccc4[nH]cc(c34)C[C@H]2N(C)C1 [Lisuride],brain edema,[5],reduced
same,survival time,[5],prolonged
"CCCN[C@H]1CCc2nc(N)sc2C1 [Pramipexole, (−)-enantiomer of 2-amino-6-n-propylamino-4,5,6,7-tetrahydrobenzothiazole-dihydrochloride]","% of control* (viability, radioactivity)","[1]; 1 nM compound, 100 uM L-dopa, 24 hrs",30.0 +/− 6.5 % of control
same,"% of control* (viability, radioactivity)","[1]; 10 nM compound, 100 uM L-dopa, 24 hrs",39.2 +/− 9.4 % of control
same,"% of control* (viability, radioactivity)","[1]; 100 nM compound, 100 uM L-dopa, 24 hrs",64.8 +/− 4.7 % of control
same,"% of control* (viability, radioactivity)","[1]; 300 nM compound, 100 uM L-dopa, 24 hrs",76.2 +/− 7.3 % of control
same,"% of control* (viability, radioactivity)","[1]; 1000 nM compound, 100 uM L-dopa, 24 hrs",65.5 +/− 14.8 % of control
same,"% of control* (viability, radioactivity)","[1]; 3000 nM compound, 100 uM L-dopa, 24 hrs",84.9 +/− 0.6 % of control
same,"% of control* (viability, radioactivity)","[1]; 10000 nM compound, 100 uM L-dopa, 24 hrs",90.0 +/− 11.5 % of control
same,EC50,"[1]; Rattus norvegicus, cerebellar granule cells in culture, L-dopa, read-out: EC50 for blocking L-dopa toxicity",0.3 to 1 µM
same,attenuation of 28-day post-ischemic loss of NS DA neurons,"[6]; Example 1, 1 mg/kg PO BID beginning at 1 hr after insult, p<0.01 vs vehicle-treated",36%
same,increase in nigrostriatal dopamine neurons compared to vehicle,"[6]; Example 2, twice daily dose of 0.3 mg/kg, threshold effect",14%
same,improvement in 28 day post-ischemic dopamine neuronal survival,"[6]; Example 2, twice daily dose of 1 mg/kg PO, p<0.0001 vs vehicle-treated",38%
c1cnc(N2CCN(Cc3ccc4c(c3)OCO4)CC2)nc1 [Piribedil],functional and biochemical parameters,[7],have an effect
